Results taken from patent US8916527B2, “Antibiotic macrocycle compounds and methods of manufacture and use thereof” (Optimer Pharmaceuticals, Inc., priority 2007, dated 2014).
Where two headings read alike, the source gives them in different places.

Tests used:
[1] = system: Finegoldia (formerly Peptococcus) magna, ATCC 29328; experiment: MIC, agar dilution method; format: cell-based; conditions: Finegoldia magna ATCC 29328
[2] = system: E. faecium; experiment: MIC profiling; conditions: Enterococcus faecium
[3] = system: Lactobacillus. casei, ATCC 393; experiment: MIC, agar dilution method; format: cell-based; conditions: Lacticaseibacillus casei, ATCC393
[4] = system: Lactobacillus acidophilus, ATCC 4356; experiment: MIC, agar dilution method; format: cell-based; conditions: ATCC4356
[5] = system: Peptostreptococcus anaerobius, ATCC 27337; experiment: MIC, agar dilution method; format: cell-based; conditions: ATCC27337
[6] = system: Clostridium difficile, ATCC 700057; experiment: MIC, agar dilution method; format: cell-based; conditions: Clostridioides difficile, ATCC700057
Procedure: (§1) Agar Dilution Method: (1)
(§2) This method was used for anaerobic organisms (Bacteroides, Clostridium, Bifidiobacteria, Prevotella, Fusobacterium, Peptococcus, Peptostreptococcus, Veillonella) and microaerophilic Lactobacillus spp, all of which were purchased form American Type Culture Collection (ATCC):
(§3) 1. Two fold dilutions of compounds were made in Brucella agar supplemented with hemin, vitamin K and 5% laked sheep blood to achieve a final concentration range from 0.016 μg/mL to 16 μg/mL.
(§4) 3. Plates were incubated in an anaerobic chamber at 35° C. for 48 hours. For the Lactobacillus strains, Mueller Hinton Agar and an incubation atmosphere of 5% CO2 were used.
(§5) 4. The lowest concentration of an antibiotic showing no growth or marked reduction in growth was read as the MIC.

[7] = system: Clostridium difficile, ATCC 43255; experiment: MIC, agar dilution method; format: cell-based; conditions: Clostridioides difficile, ATCC43255
Procedure: as §1, §2, §3, §4, §5

[8] = system: Enterococcus faecium, Vancomycin resistant clinical strain ORG#364; experiment: MIC, microbroth dilution method
[9] = system: Peptoniphilus (formerly Peptococcus) asaccharolyticus, ATCC 29743; experiment: MIC, agar dilution method; format: cell-based; conditions: Peptoniphilus asaccharolyticus ATCC 29743
[10] = system: Enterococcus faecium, Vancomycin resistant clinical strain ORG#534; experiment: MIC, microbroth dilution method
[11] = system: Lactobacillus rhamnosus, ATCC 7496; experiment: MIC, agar dilution method; format: cell-based
[12] = system: Staphylococcus aureus, Methicilin resistant clinical strain ORG#578; experiment: MIC, microbroth dilution method
[13] = system: Enterococcus faecium, ATCC 19434; experiment: MIC, microbroth dilution method
[14] = system: Streptococcus pneumoniae, ATCC 49619; experiment: MIC, microbroth dilution method; conditions: ATCC49619
[15] = system: Staphylococcus aureus, ATCC 29213; experiment: MIC, microbroth dilution method
[16] = system: ORG 99 S. epidermidis ATCC 12228; experiment: MIC, aerobic panel, microbroth dilution method; conditions: Staphylococcus epidermidis, ATCC12228, read-out: Aerobic Panel MIC
[17] = system: Staphylococcus epidennidis, clinical strain ORG#365; experiment: MIC, microbroth dilution method
[18] = system: Streptococcus pyogenes, ATCC 19615; experiment: MIC, microbroth dilution method
[19] = system: Micromonas (formerly Peptostreptococcus) micros, ATCC 33270; experiment: MIC, agar dilution method; format: cell-based; conditions: Parvimonas micra, ATCC33270; Micromonas micros ATCC 33270
[20] = system: S. aureus; experiment: MIC profiling; conditions: Staphylococcus aureus
[21] = system: Clostridium perfringens, ATCC 13124; experiment: microbe, parasite or virus in culture; format: cell-based; conditions: ATCC13124
[22] = system: Enterococcus faecium, Vancomycin resistant clinical strain ORG#360; experiment: MIC, microbroth dilution method
[23] = system: ORG 84 E. faecium ATCC 700221 VRE; experiment: MIC, aerobic panel, microbroth dilution method; conditions: Enterococcus faecium, read-out: Aerobic Panel MIC
[24] = system: gram positive bacteria (C. difficile, C. perfringenes, B. longum, F. magna, P. asaccharolyticus, P. anaerobius, M. micros, L. casei); format: cell-based
[25] = system: ORG 150 B. fragilis 25285; experiment: MIC, anaerobic panel, agar dilution method; format: cell-based; conditions: Bacteroides fragilis, Table 3, read-out: MIC, panel of anaerobic bacteria
[26] = system: Staphylococcus aureus, ATCC 33591 (Methicilin resistant); experiment: MIC, microbroth dilution method
[27] = system: ORG 83 E. faecalis ATCC 29212; experiment: MIC, aerobic panel, microbroth dilution method; conditions: Enterococcus faecalis, ATCC29212, read-out: Aerobic Panel MIC
[28] = physchem; format: physicochemical; conditions: water; read-out: Aqueous solubility
[29] = system: Bifidiobacterium longum, ATCC 15707; experiment: MIC, agar dilution method; format: cell-based; conditions: Table 1 gram positive GI flora
[30] = in vivo, po
[31] = system: C. difficile ATCC strain 700057; experiment: Effect of fecal material on in vitro activity, microbroth dilution MIC; format: cell-based; conditions: for MIC: Clostridioides difficile

Structure (SMILES): CCc1c(Cl)c(O)c(Cl)c(O)c1C(=O)O[C@H]1[C@H](O)[C@H](OC)[C@H](OC/C2=C\C=C\C[C@H](O)/C(C)=C/[C@H](CC)[C@@H](O[C@@H]3OC(C)(C)[C@@H](O)[C@H](O)[C@@H]3O)/C(C)=C/C(C)=C/C[C@@H]([C@@H](C)O)OC2=O)O[C@@H]1C [Formula II]
- MIC [1]: 8 µg/mL
- MIC [2]: > 16 µg/mL
- MIC [3]: 8 µg/mL
- MIC [4]: > 16 µg/mL
- MIC [5]: 0.25 µg/mL
- MIC ([6]; Clostridium difficile ATCC 700057, Table 1 gram positive GI flora, read-out: MIC): 2 µg/mL
- MIC ([6]; ORG 830 C. difficile ATCC 700057, Table 3, read-out: MIC, panel of anaerobic bacteria): 0.5 to 1 µg/mL
- MIC [7]: 4 µg/mL
- MIC [8]: 64 µg/mL
- MIC [9]: 4 µg/mL
- MIC [10]: > 64 µg/mL
- MIC ([11]; Lacticaseibacillus rhamnosus, ATCC7496, L. rhamnosus, read-out: MIC): > 16 µg/mL
- MIC ([11]; Lactobacillus rhamnosus ATCC 7496): >16 µg/mL
- MIC [12]: > 64 µg/mL
- MIC ([13]; ATCC19434): > 64 µg/mL
- MIC ([13]; ATCC19434, read-out: Aerobic Panel MIC): > 64 µg/mL
- MIC [14]: > 64 µg/mL
- MIC ([15]; ATCC29213): > 64 µg/mL
- MIC ([15]; ATCC29213 / MSSA, read-out: Aerobic Panel MIC): > 64 µg/mL
- MIC [16]: > 32 µg/mL
- MIC [17]: 64 µg/mL
- MIC ([18]; ATCC19615): > 64 µg/mL
- MIC ([18]; ATCC19615, read-out: Aerobic Panel MIC): > 32 µg/mL
- MIC [19]: 1 µg/mL
- MIC [20]: > 16 µg/mL
- MIC [21]: 1 µg/mL
- MIC [22]: > 64 µg/mL
- MIC [23]: > 32 µg/mL
- MIC values relative to those of OPT-80 [24]: four to sixteen fold greater
- MIC [25]: > 16 µg/mL
- MIC ([26]; ATCC33591): > 64 µg/mL
- MIC ([26]; ATCC33591 / MRSA, read-out: Aerobic Panel MIC): > 64 µg/mL
- MIC [27]: 16 to 64 µg/mL
- solubility [28]: ~300 mg/mL
- MIC [29]: 1 µg/mL
- levels detected in plasma [30]: most of which fell below the limit of quantification
- Fold increase in MIC ([31]; Brucella broth with feces vs Brucella broth only, C. difficile ATCC 700057): 4x
- activity against C. difficile compared with vancomycin ([31]; C. difficile): as active as vancomycin
- fold increase in MIC values in the presence of 5% fecal material ([31]; C. difficile ATCC strain 700057): four fold
- MIC ([31]; ATCC700057, C. difficile ATCC strain 700057, read-out: MIC in the presence of 5% fecal material): 4 µg/mL
- MIC ([31]; ATCC700057, Diluent Brucella broth only, C. difficile ATCC 700057, read-out: MIC): 1 µg/mL
- MIC ([31]; ATCC700057, Diluent Brucella broth with feces (5% fecal slurry), C. difficile ATCC 700057, read-out: MIC): 4 µg/mL

Structure (SMILES): CN[C@H](CC(C)C)C(=O)N[C@H]1C(=O)N[C@@H](CC(N)=O)C(=O)N[C@H]2C(=O)N[C@H]3C(=O)N[C@H](C(=O)N[C@H](C(=O)O)c4cc(O)cc(O)c4-c4cc3ccc4O)[C@H](O)c3ccc(c(Cl)c3)Oc3cc2cc(c3O[C@@H]2O[C@H](CO)[C@@H](O)[C@H](O)[C@H]2O[C@H]2C[C@](C)(N)[C@H](O)[C@H](C)O2)Oc2ccc(cc2Cl)[C@H]1O [Vancomycin, reference compound]
- Fold increase in MIC [31]: 4x
- fold increase in MIC values in the presence of 5% fecal material [31]: four fold
- MIC ([31]; ATCC700057, read-out: MIC in the presence of 5% fecal material): 8 µg/mL
